Columns and labels:
[1] = system: RPE1 (normal human immortalized retinal pigment epithelial cell line); assay: MTT toxicity towards normal cells, RPE1; format: cell-based; details: RPE-1, read-out: IC50 (µM) ± SEM RPE1
[2] = molecular target: BChE (Homo sapiens, UniProt P06276); assay: BChE inhibition (DTNB, butyrylthiocholine iodide)
Protocol: Butyrylthiocholine iodide and acetylthiocholine were utilized as substrates in BChE and AChE assays, respectively, where DTNB was served as indicator. All compounds were dissolved in MeOH. […] Blank assays were performed by replacing the enzyme (20 μL) with buffer and their absorbances were recorded for correction of the spontaneous lysis of the indicator or inherent color of the inhibitor.
% Inhibition = [1−(corrected A/corrected B)] * 100

[3] = system: MCF7 (breast) cancer cell line; assay: MTT antiproliferation, MCF7; format: cell-based, human; details: for IC50: Homo sapiens, MCF7, 72 h, read-out: IC50 (µM) ± SEM MCF7; for SI (selectivity index) MCF7: IC50 of RPE1/IC50 of cancer cell line
Outline: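 Cells seeded 30000/well for 24 h, then treated for 72 h with triplicate wells per dose; 0.5% DMSO as negative control. MTT (2.5 mg ml^-1) added for 4 h at 37 °C, crystals dissolved in 10% SDS overnight. Surviving fraction = O.D. treated / O.D. control.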

[4] = MTT cytotoxicity assay (CC50); format: cell-based; details: African green monkey, VERO-E6 cells
Outline: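 VERO-E6 cells seeded at 3 x 10^5 cell/ml, grown 24 h at 37 °C, then exposed to compounds in triplicate for 24 h. Viability by MTT (4 h, 37 °C), formazan in acidified isopropanol read at 570 nm; CC50 by nonlinear regression versus untreated cells.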

[5] = system: MCF7 (breast cancer cell line); assay: Annexin V-FITC apoptosis/necrosis studies; format: cell-based, human; details: MCF7, compound at its MTT IC50
Source text: It is also notable that both the tested compounds increase the apoptosis of the tested cancer cells. Moreover, the total amount of apoptosis for the tested cell line is higher for compound 6m than that for 6l (total number of apoptosis = 38.41, 42.55 for compounds 6l and 6m, respectively). […] On the other hand, necrosis observed for compound 6m is relatively higher than that of compound 6l (necrosis = 3.01, 3.96 for compounds 6l and 6m, respectively). […] These observations agree with the antiproliferation properties observed through MTT assay (Table 3, Fig. 8).
Cell cycle studies for the most promising agents synthesized (6l and 6m) against MCF7 (breast) cancer call were conducted by the standard technique. The Cells were suspended in DMEM medium in addition to 1% antibiotic–antimycotic mixture (10000 μg ml^-1 potassium penicillin, 10000 μg ml^-1 streptomycin sulfate and 25 μg ml^-1 amphotericin B), 10% fetal bovine serum and 1% L-glutamine at 37 °C, under 5% CO2 and 95% humidity. Cells were seeded at concentration of 30000 cells per well in fresh complete growth medium in 96-well tissue culture microtiter plates for 24 h. Media was aspirated, fresh complete medium was added and cells were incubated with the IC50 concentration of the tested compounds which determined previously in the MTT antiproliferation testing assay. The ab139418-Propidium Iodide Flow Cytometry kit for cycle analysis (reader: BD FACS Calibur)^8 was used for cell cycle analysis. The Annexin V-FITC Apoptosis Detection Kit (Catalog#K101-25) was utilized for apoptosis studies.^9 All the studies were conducted according to the manufacturer’s instruction.

[6] = system: PaCa2 (pancreatic) cancer cell line; assay: MTT antiproliferation, PaCa-2; format: cell-based, human; details: for IC50: Homo sapiens, PaCa-2, 72 h, read-out: IC50 (µM) ± SEM PaCa-2; for SI (selectivity index) PaCa-2: IC50 of RPE1/IC50 of cancer cell line

Sequence of BChE (P06276 29-602, species assumed): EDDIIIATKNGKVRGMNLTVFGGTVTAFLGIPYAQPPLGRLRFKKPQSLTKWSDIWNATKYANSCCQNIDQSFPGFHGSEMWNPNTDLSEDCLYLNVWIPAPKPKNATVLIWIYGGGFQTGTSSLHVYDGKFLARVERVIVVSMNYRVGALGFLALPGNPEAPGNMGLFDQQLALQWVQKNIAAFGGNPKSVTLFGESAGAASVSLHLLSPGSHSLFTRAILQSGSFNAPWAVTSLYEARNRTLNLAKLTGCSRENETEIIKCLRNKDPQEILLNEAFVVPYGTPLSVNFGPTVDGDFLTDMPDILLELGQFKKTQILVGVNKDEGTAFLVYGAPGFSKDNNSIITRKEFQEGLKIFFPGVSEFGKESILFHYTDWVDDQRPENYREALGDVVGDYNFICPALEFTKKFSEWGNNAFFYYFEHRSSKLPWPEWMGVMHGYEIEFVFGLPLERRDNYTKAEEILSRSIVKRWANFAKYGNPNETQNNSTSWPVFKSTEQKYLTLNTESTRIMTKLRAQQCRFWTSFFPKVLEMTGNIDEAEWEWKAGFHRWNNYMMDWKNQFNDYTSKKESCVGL

| SMILES | IC50 [1] | IC50 [2] | IC50 [3] | SI (selectivity index) MCF7 [3] | CC50 at 24 h [4] | Apoptosis (%) Early [5] | Apoptosis (%) Late [5] | Apoptosis (%) Total [5] | Necrosis [5] | IC50 [6] | SI (selectivity index) PaCa-2 [6] |
| --- | --- | --- | --- | --- | --- | --- | --- | --- | --- | --- | --- |
| CN1CC(c2ccc(Br)cc2)C2(CN(S(C)(=O)=O)C/C(=C\c3ccc(Br)cc3)C2=O)C12C(=O)Nc1ccccc12 (stereo not shown) [Compound 6m, (E)-5″-(4-Bromobenzylidene)-4′-(4-bromophenyl)-1′-methyl-1″-(methylsulfonyl)dispiro[indoline-3,2′-pyrrolidine-3′,3″-piperidine]-2,4″-dione] | 14.9 ± 1.61 µM | 27.9 ± 2.96 µM | 3.6 ± 0.19 µM | 4.1 | 160 µM | 24.88% | 13.71% | 42.55% | 3.96% | 12.5 ± 0.67 µM | 1.2 |
| CCS(=O)(=O)N1C/C(=C\c2ccc(Cl)cc2)C(=O)C2(C1)C(c1ccc(Cl)cc1)CN(C)C21C(=O)Nc2ccc(Cl)cc21 (stereo not shown) [Compound 6l, (E)-5-Chloro-5″-(4-chlorobenzylidene)-4′-(4-chlorophenyl)-1″-(ethylsulfonyl)-1′-methyldispiro[indoline-3,2′-pyrrolidine-3′,3″-piperidine]-2,4″-dione] | > 50 µM | 11.8 ± 0.95 µM | 3.99 ± 0.31 µM | > 12.5 | 476 µM | 14.39% | 21.01% | 38.41% | 3.01% | 11.9 ± 0.83 µM | > 4.2 |

From article PMC9380671, “Development of spiro-3-indolin-2-one containing compounds of antiproliferative and anti-SARS-CoV-2 properties” (Scientific Reports, 2022)
